The nature of assay [1]: Inhibition of yeast farnesyltransferase using dansyl-GCVIA as substrate preincubated for 5 mins measured over 300 secs by continuous fluorescence assay. More on the design: species or system Saccharomyces cerevisiae.
The species entered for assay [2] is Rattus norvegicus. In words: Activity of rat farnesyltransferase.
The species named for assay [3] is Rattus norvegicus. Nature of the assay: Ratio of […] to Km for rat farnesyltransferase.
Assay [4] in a line: Inhibition of rat farnesyltransferase using dansyl-GCVIA as substrate preincubated for 5 mins measured over 300 secs by continuous fluorescence assay.

Where a SMILES comes first, the peptide text is derived from it. The star is where a group is joined. Dansyl = CN(C)c1cccc2c(S(=O)(=O)*)cccc12

Regarding `CCCCCCCCCCCC/C(C(=O)O)=C(\C)C(=O)O` [CHAETOMELLIC ACID C], in assay [1], the IC50 stood at 4 µM.

On to `CC[C@H](C)[C@H](NC(=O)[C@@H](NC(=O)[C@H](CS)NC(=O)CNS(=O)(=O)c1cccc2c(N(C)C)cccc12)C(C)C)C(=O)N[C@@H](C)C(=O)O` (Dansyl-GCVIA-OH), for which, in assay [2], the kcat was greater than 0.2 s⁻¹. For the same compound, the kcat/Km in assay [3] came to 120000 M⁻¹ s⁻¹.

Take `CCCCSCCCCCCCCC/C(C(=O)O)=C(\C)C(=O)O`: the IC50 was found to be 3.5 µM in assay [1] and 0.19 µM in assay [4].

`CC(C)=CCC/C(C)=C/CC/C(C)=C/C/C(C(=O)O)=C(\C)C(=O)O` gave an IC50 in assay [1] of 2.4 µM.

Consider `CCCCCCCCCCCCCCCC/C(C(=O)O)=C(\C)C(=O)O`, for which the IC50 in assay [1] was determined as 65.6 µM; in assay [4], 2.6 µM.

On to `CC(C)C[C@H](NC(=O)[C@@H](NC(=O)[C@H](CS)NC(=O)CNS(=O)(=O)c1cccc2c(N(C)C)cccc12)C(C)C)C(=O)N[C@@H](CO)C(=O)O` (Dansyl-GCVLS-OH), for which, in assay [2], the kcat was found to be 0.4 s⁻¹. Moreover, the kcat/Km in assay [3] was determined as 170000 M⁻¹ s⁻¹.

Consider `CCCCCCCCCCCCCC/C(C(=O)O)=C(\C)C(=O)O`, for which the IC50 in assay [1] was found to be 16 µM; in assay [4], 0.91 µM.

For `C=CCCCCCCC/C(C(=O)O)=C(\C)C(=O)O`, the values for the IC50 in assay [1] and in assay [4] were 13.4 µM and 0.49 µM, respectively.

Usually IC50 stands for the point on the concentration scale where inhibition reaches its midpoint. Read a low IC50 as higher potency. What is called kcat is the number of substrate molecules converted per active site and unit of time at saturation. Broadly, the kcat/Km is the second-order rate constant that governs catalysis at low substrate concentration.

(Values after ChEMBL document CHEMBL2311517, “Novel route to chaetomellic acid A and analogues: serendipitous discovery of a more competent FTase inhibitor” (Bioorg Med Chem, 2013).)
